Paper PMC11279841, “New Members of the Centrapalus Coumarin and Pauciflorin Series from Centrapalus pauciflorus” (Pharmaceutics, 2024)
Where two headings read alike, the source gives them in different places.

What was measured:
[1] = system: Leishmania major promastigotes; set-up: method as in PMID 9170288; conditions: in vitro; cited from earlier work
[2] = system: Plasmodium falciparum schizonts; set-up: method as in PMID 9170288; conditions: in vitro; cited from earlier work
human lymphocytes = system: human lymphocytes; set-up: method as in PMID 9170288; conditions: cited from earlier work
MCF-7 cells [3] = experiment: MTT antiproliferative assay, MCF-7 breast cancer cells; format: cell-based, human; conditions: for inhibition at 10 µM / inhibition at 30 µM: Homo sapiens, read-out: Inhibition (%) ± SEM
Source text: (§1) The antiproliferative activities of the isolated compounds were investigated on a panel of human adherent cancer cell lines using the 3-(4,5-dimethylthiazol-2-yl)-2,5-diphenyltetrazolium bromide) (MTT) assay. Cell lines isolated from cervical (HeLa and SiHa), breast (MCF-7 and MDA-MB-231), ovarian cancers (A2780), and non-malignant mouse fibroblasts (NIH/3T3) were purchased from the European Collection of Cell Cultures (Salisbury, UK). The SiHa cell line was obtained from the […] (Manassas, VA, USA). The cell culturing and determination of the antiproliferative effects of the isolated compounds were conducted using a methodology described previously. Calculations were performed using GraphPad Prism 5.01 software (GraphPad Software Inc., San Diego, CA, USA).
(§2) The antiproliferative properties of centrapalus coumarins N (2) and O (5) were investigated against a panel of human adherent tumor cell lines of gynecological origin by in vitro MTT assay (Table 4). The amounts of the other compounds were insufficient for the in vitro assay. Compounds 2 and 5 were tested on the breast (MCF-7, MDA-MB-231), cervical (HeLa, SiHa), and ovarian (A2780) cancer cells in two concentrations (10 and 30 µM). The anticancer agent cisplatin was used as a positive control. […] Non-cancerous mouse fibroblasts (NIH/3T3) were additionally included to characterize the cancer selectivity of the tested compounds. Since compounds 2 and 5 elicited weak action against fibroblasts, lower than against the ovarian cancer cells, their effect detected on A2780 cells could be regarded as selective.

MDA-MB-231 cells = experiment: MTT antiproliferative assay, MDA-MB-231 breast cancer cells; format: cell-based, human; conditions: for inhibition at 10 µM / inhibition at 30 µM: Homo sapiens, read-out: Inhibition (%) ± SEM
Source text: as §1, §2

HeLa cells [4] = experiment: MTT antiproliferative assay, HeLa cervical cancer cells; format: cell-based, human; conditions: for inhibition at 10 µM / inhibition at 30 µM: Homo sapiens, read-out: Inhibition (%) ± SEM
Source text: as §1, §2

SiHa cells [5] = experiment: MTT antiproliferative assay, SiHa cervical cancer cells; format: cell-based, human; conditions: for inhibition at 10 µM / inhibition at 30 µM: Homo sapiens, read-out: Inhibition (%) ± SEM
Source text: as §1, §2

A2780 cells [6] = experiment: MTT antiproliferative assay, A2780 ovarian cancer cells; format: cell-based, human; conditions: for IC50: A2780, read-out: Calculated IC50 Value (converted); for inhibition at 10 µM / inhibition at 30 µM: read-out: Inhibition (%) ± SEM
Source text: as §1, §2

[7] = system: NIH/3T3 mouse fibroblasts; experiment: MTT antiproliferative assay, non-malignant NIH/3T3 fibroblasts; format: cell-based; conditions: for inhibition at 10 µM / inhibition at 30 µM: Mus musculus, NIH3T3, read-out: Inhibition (%) ± SEM; for action against fibroblasts (in words): NIH/3T3, lower than against the ovarian cancer cells
Source text: as §1, §2

MCF-7 cells [8] = conditions: cited from earlier work
HeLa cells [9] = conditions: cited from earlier work
SiHa cells [10] = system: SiHa cells; set-up: method as in doi:10.1016/j.arabjc.2023.104777; conditions: previous work; cited from earlier work
A2780 cells [11] = system: A2780 cells; set-up: method as in doi:10.1016/j.arabjc.2023.104777; conditions: previous work; cited from earlier work
[12] = system: MCF-7, MDA-MB-231, HeLa, SiHa and A2780 cells; conditions: previous antiproliferative assay; cited from earlier work
[13] = system: A549, HCT116, SK-HEP-1, and HL-60; set-up: method as in PMID 29641986; conditions: four cancer cell lines; cited from earlier work
Biomphalaria glabrata = conditions: cited from earlier work
Bulinus truncatus = conditions: cited from earlier work
[14] = read-out: Calculated IC50 Value (converted)
[15] = ref our previous studies, read-out: IC50 (remarkable antiproliferative activity)

Molecule: Cc1cccc2oc(=O)c3c(c12)O[C@@H](C)[C@@]3(C)CC(=O)[C@@H]1OC1(C)C [2′-epicycloisobrachycoumarinone epoxide]
- activity against Leishmania major promastigotes (in words) [1]: exhibited activity
- activity against Plasmodium falciparum schizonts (in words) [2]: exhibited activity
- inhibition on the proliferation of human lymphocytes (in words) (human lymphocytes): weak inhibition

Molecule: N.N.[Cl][Pt][Cl] [Cisplatin, cisplatin, reference compound]
- Inhibition (%) ± SEM (MCF-7 cells [3]; MCF7, 10 µM): 66.91 ± 1.81%
- Inhibition (%) ± SEM (MCF-7 cells [3]; MCF7, 30 µM): 96.80 ± 0.35%
- IC50 (MCF-7 cells [3]; MCF7, read-out: Calculated IC50 Value (converted)): 5.78 µM
- Inhibition (%) ± SEM (MDA-MB-231 cells; MDA-MB-231, 10 µM): 42.72 ± 2.68%
- Inhibition (%) ± SEM (MDA-MB-231 cells; MDA-MB-231, 30 µM): 86.44 ± 0.42%
- IC50 (MDA-MB-231 cells; MDA-MB-231, read-out: Calculated IC50 Value (converted)): 10.2 µM
- Inhibition (%) ± SEM (HeLa cells [4]; 10 µM): 42.61 ± 2.33%
- Inhibition (%) ± SEM (HeLa cells [4]; 30 µM): 99.93 ± 0.26%
- IC50 (HeLa cells [4]; [14]): 12.4 µM
- Inhibition (%) ± SEM (SiHa cells [5]; 10 µM): 60.98 ± 0.92%
- Inhibition (%) ± SEM (SiHa cells [5]; 30 µM): 88.95 ± 0.53%
- IC50 (SiHa cells [5]; [14]): 4.29 µM
- Inhibition (%) ± SEM (A2780 cells [6]; A2780, 10 µM): 83.57 ± 2.21%
- Inhibition (%) ± SEM (A2780 cells [6]; A2780, 30 µM): 95.02 ± 0.28%
- IC50 (A2780 cells [6]): 1.3 µM
- Inhibition (%) ± SEM ([7]; NIH/3T3, 10 µM): 73.88 ± 1.63%
- Inhibition (%) ± SEM ([7]; NIH/3T3, 30 µM): 97.10 ± 0.15%
- IC50 ([7]; NIH/3T3, read-out: Calculated IC50 Value (converted)): 5.5 µM

Molecule: C=CC1(C)CC(=O)C2C(=O)c3c(C)cccc3OC21C1(C)Cc2c(c3c(C)cccc3oc2=O)O1 (centres unmarked) [Compound 2, centrapalus coumarin N]
- inhibition at 10 µM (MCF-7 cells [3]; MCF7, 10 µM): 34.6 ± 2.19%
- inhibition at 30 µM (MCF-7 cells [3]; MCF7, 30 µM): 44.2 ± 1.76%
- inhibition at 10 µM (MDA-MB-231 cells; MDA-MB-231, 10 µM): < 20%
- inhibition at 30 µM (MDA-MB-231 cells; MDA-MB-231, 30 µM): 25.4 ± 2.06%
- inhibition at 10 µM (HeLa cells [4]; 10 µM): < 20%
- inhibition at 30 µM (HeLa cells [4]; 30 µM): 41.8 ± 1.42%
- inhibition at 10 µM (SiHa cells [5]; 10 µM): < 20%
- inhibition at 30 µM (SiHa cells [5]; 30 µM): 30.7 ± 1.49%
- IC50 (A2780 cells [6]; Homo sapiens): 20.1 µM
- inhibition at 10 µM (A2780 cells [6]; Homo sapiens, A2780, 10 µM): 27.7 ± 1.34%
- inhibition at 30 µM (A2780 cells [6]; Homo sapiens, A2780, 30 µM): 66.2 ± 0.7%
- antiproliferative activity against ovarian cancer cells (in words) (A2780 cells [6]): considerable and selective
- inhibition at 10 µM ([7]; NIH/3T3, 10 µM): < 20%
- inhibition at 30 µM ([7]; NIH/3T3, 30 µM): 48.5 ± 2.2%
- action against fibroblasts (in words) [7]: weak action

Molecule: C=C[C@@]1(C)C[C@@H](/C=C(\C)C(=O)OC)Oc2c1c(=O)oc1cccc(C)c21 [Compound 5, (3′R),(5′S)-(E)-methyl 3-(4,10-dimethyl-5-oxo-4-vinyl-2,3,4,5-tetrahydropyrano[3,2-c]chromen-2-yl)-2-methyl acrylate]
- inhibition at 10 µM (MCF-7 cells [3]; MCF7, 10 µM): < 20%
- inhibition at 30 µM (MCF-7 cells [3]; MCF7, 30 µM): 35.5 ± 1.51%
- inhibition at 10 µM (MDA-MB-231 cells; MDA-MB-231, 10 µM): < 20%
- inhibition at 30 µM (MDA-MB-231 cells; MDA-MB-231, 30 µM): 25.5 ± 1.2%
- inhibition at 10 µM (HeLa cells [4]; 10 µM): < 20%
- inhibition at 30 µM (HeLa cells [4]; 30 µM): 31.3 ± 1.18%
- inhibition at 10 µM (SiHa cells [5]; 10 µM): < 20%
- inhibition at 30 µM (SiHa cells [5]; 30 µM): 33.3 ± 1.32%
- IC50 (A2780 cells [6]; Homo sapiens): 16 µM
- inhibition at 10 µM (A2780 cells [6]; Homo sapiens, A2780, 10 µM): 27.4 ± 1.55%
- inhibition at 30 µM (A2780 cells [6]; Homo sapiens, A2780, 30 µM): 69.3 ± 1.12%
- antiproliferative activity against ovarian cancer cells (in words) (A2780 cells [6]): considerable and selective
- inhibition at 10 µM ([7]; NIH/3T3, 10 µM): < 20%
- inhibition at 30 µM ([7]; NIH/3T3, 30 µM): 28.4 ± 2.5%
- action against fibroblasts (in words) [7]: weak action

Molecule: C=C[C@@]1(C)C[C@@]2(C=C(C)C(=O)O2)Oc2c1c(=O)oc1cccc(C)c21 [Compound 6]
- IC50 (MCF-7 cells [8]; previous work, read-out: IC50): 15.3 µM
- IC50 (HeLa cells [9]; previous work, read-out: IC50): 14.6 µM
- IC50 (SiHa cells [10]): 18.9 µM
- IC50 (A2780 cells [11]): 29.9 µM

Molecule: C=C[C@]1(C)C[C@@H](C=C(C)C)Oc2c1c(=O)oc1cccc(C)c21 [Compound 7, Centrapalus coumarin A]
- IC50 (MCF-7 cells [8]; [15]): < 10 µM
- IC50 (HeLa cells [9]; previous work, read-out: IC50): 9.21 µM
- IC50 (HeLa cells [9]; [15]): < 10 µM
- IC50 (A2780 cells [11]): 19.7 µM

Molecule: CC1=C[C@H](C[C@]2(C)c3c(c4c(C)cccc4oc3=O)O[C@@H]2C)OC1=O [Compound 8, Hoehnelia coumarin]
- antiproliferative activity (in words) [12]: ineffective

Molecule: C/C(=C\CC[C@@]1(C)C=Cc2c(O)cc(C)cc2O1)CC(=O)CC(C)C [anthopogochromene B]
- cytotoxic activity (in words) [13]: moderate cytotoxic activity

Molecule: Cc1cccc2oc(=O)c3c(c12)O[C@H](C)[C@@]3(C)CC(=O)[C@@H]1OC1(C)C [cycloisobrachycoumarinone epoxide]
- activity against Leishmania major promastigotes (in words) [1]: exhibited activity
- activity against Plasmodium falciparum schizonts (in words) [2]: exhibited activity
- inhibition on the proliferation of human lymphocytes (in words) (human lymphocytes): weak inhibition

Molecule: Ethuliacoumarin A
- molluscicidal activity (in words) (Biomphalaria glabrata): molluscicidal activity
- molluscicidal activity (in words) (Bulinus truncatus): molluscicidal activity

Molecule: centrapalus coumarin B
- IC50 (MCF-7 cells [8]; [15]): < 10 µM
- IC50 (HeLa cells [9]; [15]): < 10 µM

Molecule: centrapalus coumarin F
- IC50 (MCF-7 cells [8]; [15]): < 10 µM
- IC50 (HeLa cells [9]; [15]): < 10 µM

Molecule: isoethuliacoumarin A
- molluscicidal activity (in words) (Biomphalaria glabrata): molluscicidal activity
- molluscicidal activity (in words) (Bulinus truncatus): molluscicidal activity

Molecule: pauciflorin F
- IC50 (MCF-7 cells [8]; [15]): < 10 µM
- IC50 (HeLa cells [9]; [15]): < 10 µM
